{
  "source": "ChEMBL document CHEMBL1201862",
  "about": "“PubChem BioAssay data set” (2004)",
  "key": {"[1]": {"target": "T1, Microphthalmia-associated transcription factor (Homo sapiens, UniProt O75030)", "T1 sequence (O75030 whole entry)": "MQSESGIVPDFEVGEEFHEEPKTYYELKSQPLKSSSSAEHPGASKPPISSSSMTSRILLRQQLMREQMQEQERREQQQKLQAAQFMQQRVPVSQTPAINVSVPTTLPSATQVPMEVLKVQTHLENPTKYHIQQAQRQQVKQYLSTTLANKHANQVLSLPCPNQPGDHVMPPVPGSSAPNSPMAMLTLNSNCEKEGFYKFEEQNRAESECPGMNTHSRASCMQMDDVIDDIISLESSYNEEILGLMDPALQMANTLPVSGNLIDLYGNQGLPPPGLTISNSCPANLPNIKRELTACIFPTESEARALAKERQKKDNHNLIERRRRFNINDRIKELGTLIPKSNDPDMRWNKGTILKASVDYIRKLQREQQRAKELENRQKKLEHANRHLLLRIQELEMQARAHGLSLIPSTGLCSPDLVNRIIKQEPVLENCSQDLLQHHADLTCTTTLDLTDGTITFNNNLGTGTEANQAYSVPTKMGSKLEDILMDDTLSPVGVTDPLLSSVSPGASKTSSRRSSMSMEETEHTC", "assay": "reducers of TRPM1 reporter luminescence, concentration series – cell-based, SK-MEL-5, cherry-picked, set 3, MITF inhibitor project, dose response (AID 493073);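 further: SK-MEL-5 melanoma cells with luciferase driven by the MITF target TRPM1 promoter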", "type": "functional"}, "[2]": {"system": "Streptococcus", "assay": "GAS UMAA2166 growth inhibition – luminescence, BacTiterGlo, counter-screen for streptokinase expression inhibitor project, dose response (AID 1915);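 further: potency for reduction of bacterial viability or growth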", "type": "functional, organism-based"}, "[3]": {"assay": "THP-1 cell cytotoxicity, dose response, cytotoxicity control for non-replicating M. tuberculosis project (AID 489025)", "type": "functional"}, "[4]": {"target": "T2, Streptokinase A (Streptococcus pyogenes serotype M1, UniProt P10520)", "T2 sequence (P10520 whole entry)": "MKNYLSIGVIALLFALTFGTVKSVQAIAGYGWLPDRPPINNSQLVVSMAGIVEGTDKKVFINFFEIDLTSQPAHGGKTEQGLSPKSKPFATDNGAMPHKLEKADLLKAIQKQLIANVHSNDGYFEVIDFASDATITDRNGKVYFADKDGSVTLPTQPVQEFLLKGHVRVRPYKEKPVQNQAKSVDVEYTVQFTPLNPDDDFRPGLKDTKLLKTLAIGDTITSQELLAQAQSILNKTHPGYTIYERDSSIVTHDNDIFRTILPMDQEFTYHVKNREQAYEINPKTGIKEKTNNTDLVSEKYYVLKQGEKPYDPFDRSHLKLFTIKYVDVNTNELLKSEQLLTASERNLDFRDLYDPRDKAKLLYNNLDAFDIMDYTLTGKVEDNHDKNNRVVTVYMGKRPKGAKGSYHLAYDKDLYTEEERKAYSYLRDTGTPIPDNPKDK", "assay": "viability-normalized secreted streptokinase activity reduction – plasminogen activation absorbance, OD405, dose response (AID 1914);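 further: secreted streptokinase activity via plasminogen activation per viability signal from cell pellet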", "type": "functional, Streptococcus pyogenes M1 GAS"}, "[5]": {"target": "Serine/threonine-protein phosphatase PP1-alpha catalytic subunit (Homo sapiens, UniProt P62136)", "assay": "inhibition of protein phosphatase 1 activity – biochemical, fluorescence, dose response (AID 2403);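 further: phosphatase turnover of OMFP into fluorescent 3-O-methylfluorescein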"}, "[6]": {"target": "Serine/threonine-protein phosphatase (Homo sapiens, UniProt Q9BPW0)", "assay": "Counterscreen for inhibitors of PP1: fluorescence-based biochemical high throughput dose response assay to identify inhibitors of Protein Phosphatase 5 (PP5). [Related pubchem assays: 2034 (Summary (PP5 inhibitors)), 1987 (PP5 inhibitors in singlate), 2235 (PP1 inhibitors in singlate)]"}, "[7]": {"assay": "cells", "type": "functional"}, "[8]": {"system": "Vero", "assay": "cells", "type": "functional", "details": "Chlorocebus sabaeus"}, "[9]": {"system": "Streptococcus sp. 'group A'", "assay": "Streptococcus pyogenes SK(-)GAS viability under kanamycin – luminescence, BacTiterGlo, confirmation, counter-screen for streptokinase expression inhibitor project, dose response (AID 1900)", "type": "functional, organism-based"}, "[10]": {"system": "INS1", "assay": "INS-1E survival protection against cytokine death – cell-based, luminescence, retest, dose response (AID 449756);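 further: cell death triggered by IL-1 beta plus TNF-alpha plus IFN-gamma mixture; protective hits raise ATP signal compared with cytokine alone wells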", "type": "functional", "details": "Rattus norvegicus"}, "[11]": {"assay": "Vero E6 cell cytotoxicity, dose response, cytotoxicity control for non-replicating M. tuberculosis project, secondary assay (AID 492998)", "type": "functional, VeroE6", "details": "Vero C1008"}, "[12]": {"target": "Ephrin type-A receptor 4 (Mus musculus, UniProt Q03137)", "sequence (Q03137 whole entry)": "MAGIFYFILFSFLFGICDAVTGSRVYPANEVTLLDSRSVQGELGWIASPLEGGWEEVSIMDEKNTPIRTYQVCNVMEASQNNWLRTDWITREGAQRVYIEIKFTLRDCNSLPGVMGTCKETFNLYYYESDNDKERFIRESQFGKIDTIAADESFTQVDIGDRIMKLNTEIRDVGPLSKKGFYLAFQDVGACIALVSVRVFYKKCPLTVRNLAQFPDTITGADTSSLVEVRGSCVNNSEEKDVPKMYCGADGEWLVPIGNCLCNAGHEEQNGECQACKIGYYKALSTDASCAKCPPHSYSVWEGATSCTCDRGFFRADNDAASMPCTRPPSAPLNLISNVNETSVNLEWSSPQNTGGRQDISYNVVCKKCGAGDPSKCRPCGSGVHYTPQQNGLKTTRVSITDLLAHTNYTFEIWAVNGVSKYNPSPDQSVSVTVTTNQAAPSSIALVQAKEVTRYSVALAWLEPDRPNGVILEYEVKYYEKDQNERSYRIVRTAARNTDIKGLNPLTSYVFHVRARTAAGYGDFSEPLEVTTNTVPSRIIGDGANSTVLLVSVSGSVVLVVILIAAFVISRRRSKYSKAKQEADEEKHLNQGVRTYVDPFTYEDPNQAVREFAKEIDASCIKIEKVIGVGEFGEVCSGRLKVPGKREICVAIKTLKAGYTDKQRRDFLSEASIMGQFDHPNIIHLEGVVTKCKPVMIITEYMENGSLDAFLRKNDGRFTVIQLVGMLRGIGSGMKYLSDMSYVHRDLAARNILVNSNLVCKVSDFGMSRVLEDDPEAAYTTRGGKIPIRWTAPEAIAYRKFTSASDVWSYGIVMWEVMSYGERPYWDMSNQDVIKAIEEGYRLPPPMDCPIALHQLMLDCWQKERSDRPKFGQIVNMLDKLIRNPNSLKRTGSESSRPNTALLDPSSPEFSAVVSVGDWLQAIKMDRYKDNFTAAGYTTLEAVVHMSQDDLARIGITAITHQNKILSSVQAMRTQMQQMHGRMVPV", "assay": "EphA4 ligand-binding antagonists – biochemical, colorimetric, mouse EphA4, primary screen (AID 689)", "type": "functional"}, "[13]": {"target": "Photoreceptor-specific nuclear receptor (Homo sapiens, UniProt Q9Y5X4)", "sequence (Q9Y5X4 whole entry)": "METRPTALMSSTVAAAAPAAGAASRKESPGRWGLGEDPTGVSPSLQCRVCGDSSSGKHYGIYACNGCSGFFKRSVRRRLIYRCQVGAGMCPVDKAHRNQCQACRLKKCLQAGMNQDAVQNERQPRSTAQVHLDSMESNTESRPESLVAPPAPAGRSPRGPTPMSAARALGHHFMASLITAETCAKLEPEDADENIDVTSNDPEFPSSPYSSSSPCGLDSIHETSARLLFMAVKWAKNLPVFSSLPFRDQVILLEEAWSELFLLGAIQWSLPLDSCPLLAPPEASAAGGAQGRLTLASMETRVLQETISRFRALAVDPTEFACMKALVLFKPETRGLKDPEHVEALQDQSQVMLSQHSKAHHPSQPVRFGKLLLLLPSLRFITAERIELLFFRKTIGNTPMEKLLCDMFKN", "assay": "ligands suppressing NR2E3 nuclear receptor activity – biochemical, TR-FRET, dose response (AID 463256)", "type": "functional"}, "[14]": {"target": "Peroxisome proliferator-activated receptor gamma/Nuclear receptor corepressor 2 (Homo sapiens, UniProt P37231+Q9Y618)", "sequence (P37231 whole entry)": "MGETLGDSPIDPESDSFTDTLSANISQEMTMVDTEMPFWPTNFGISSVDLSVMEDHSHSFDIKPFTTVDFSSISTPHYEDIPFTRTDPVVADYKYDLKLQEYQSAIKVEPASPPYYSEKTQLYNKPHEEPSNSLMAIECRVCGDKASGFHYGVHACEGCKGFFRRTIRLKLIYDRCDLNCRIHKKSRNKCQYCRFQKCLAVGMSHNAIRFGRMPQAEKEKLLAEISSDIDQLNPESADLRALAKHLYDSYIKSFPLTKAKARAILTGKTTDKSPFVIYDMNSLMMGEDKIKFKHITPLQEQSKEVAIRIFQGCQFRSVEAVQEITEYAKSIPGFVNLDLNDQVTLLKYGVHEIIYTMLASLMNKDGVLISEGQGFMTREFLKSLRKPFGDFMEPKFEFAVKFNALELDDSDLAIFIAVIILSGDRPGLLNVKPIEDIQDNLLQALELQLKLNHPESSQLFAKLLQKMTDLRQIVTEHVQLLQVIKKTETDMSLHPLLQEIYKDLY", "sequence (Q9Y618 whole entry)": "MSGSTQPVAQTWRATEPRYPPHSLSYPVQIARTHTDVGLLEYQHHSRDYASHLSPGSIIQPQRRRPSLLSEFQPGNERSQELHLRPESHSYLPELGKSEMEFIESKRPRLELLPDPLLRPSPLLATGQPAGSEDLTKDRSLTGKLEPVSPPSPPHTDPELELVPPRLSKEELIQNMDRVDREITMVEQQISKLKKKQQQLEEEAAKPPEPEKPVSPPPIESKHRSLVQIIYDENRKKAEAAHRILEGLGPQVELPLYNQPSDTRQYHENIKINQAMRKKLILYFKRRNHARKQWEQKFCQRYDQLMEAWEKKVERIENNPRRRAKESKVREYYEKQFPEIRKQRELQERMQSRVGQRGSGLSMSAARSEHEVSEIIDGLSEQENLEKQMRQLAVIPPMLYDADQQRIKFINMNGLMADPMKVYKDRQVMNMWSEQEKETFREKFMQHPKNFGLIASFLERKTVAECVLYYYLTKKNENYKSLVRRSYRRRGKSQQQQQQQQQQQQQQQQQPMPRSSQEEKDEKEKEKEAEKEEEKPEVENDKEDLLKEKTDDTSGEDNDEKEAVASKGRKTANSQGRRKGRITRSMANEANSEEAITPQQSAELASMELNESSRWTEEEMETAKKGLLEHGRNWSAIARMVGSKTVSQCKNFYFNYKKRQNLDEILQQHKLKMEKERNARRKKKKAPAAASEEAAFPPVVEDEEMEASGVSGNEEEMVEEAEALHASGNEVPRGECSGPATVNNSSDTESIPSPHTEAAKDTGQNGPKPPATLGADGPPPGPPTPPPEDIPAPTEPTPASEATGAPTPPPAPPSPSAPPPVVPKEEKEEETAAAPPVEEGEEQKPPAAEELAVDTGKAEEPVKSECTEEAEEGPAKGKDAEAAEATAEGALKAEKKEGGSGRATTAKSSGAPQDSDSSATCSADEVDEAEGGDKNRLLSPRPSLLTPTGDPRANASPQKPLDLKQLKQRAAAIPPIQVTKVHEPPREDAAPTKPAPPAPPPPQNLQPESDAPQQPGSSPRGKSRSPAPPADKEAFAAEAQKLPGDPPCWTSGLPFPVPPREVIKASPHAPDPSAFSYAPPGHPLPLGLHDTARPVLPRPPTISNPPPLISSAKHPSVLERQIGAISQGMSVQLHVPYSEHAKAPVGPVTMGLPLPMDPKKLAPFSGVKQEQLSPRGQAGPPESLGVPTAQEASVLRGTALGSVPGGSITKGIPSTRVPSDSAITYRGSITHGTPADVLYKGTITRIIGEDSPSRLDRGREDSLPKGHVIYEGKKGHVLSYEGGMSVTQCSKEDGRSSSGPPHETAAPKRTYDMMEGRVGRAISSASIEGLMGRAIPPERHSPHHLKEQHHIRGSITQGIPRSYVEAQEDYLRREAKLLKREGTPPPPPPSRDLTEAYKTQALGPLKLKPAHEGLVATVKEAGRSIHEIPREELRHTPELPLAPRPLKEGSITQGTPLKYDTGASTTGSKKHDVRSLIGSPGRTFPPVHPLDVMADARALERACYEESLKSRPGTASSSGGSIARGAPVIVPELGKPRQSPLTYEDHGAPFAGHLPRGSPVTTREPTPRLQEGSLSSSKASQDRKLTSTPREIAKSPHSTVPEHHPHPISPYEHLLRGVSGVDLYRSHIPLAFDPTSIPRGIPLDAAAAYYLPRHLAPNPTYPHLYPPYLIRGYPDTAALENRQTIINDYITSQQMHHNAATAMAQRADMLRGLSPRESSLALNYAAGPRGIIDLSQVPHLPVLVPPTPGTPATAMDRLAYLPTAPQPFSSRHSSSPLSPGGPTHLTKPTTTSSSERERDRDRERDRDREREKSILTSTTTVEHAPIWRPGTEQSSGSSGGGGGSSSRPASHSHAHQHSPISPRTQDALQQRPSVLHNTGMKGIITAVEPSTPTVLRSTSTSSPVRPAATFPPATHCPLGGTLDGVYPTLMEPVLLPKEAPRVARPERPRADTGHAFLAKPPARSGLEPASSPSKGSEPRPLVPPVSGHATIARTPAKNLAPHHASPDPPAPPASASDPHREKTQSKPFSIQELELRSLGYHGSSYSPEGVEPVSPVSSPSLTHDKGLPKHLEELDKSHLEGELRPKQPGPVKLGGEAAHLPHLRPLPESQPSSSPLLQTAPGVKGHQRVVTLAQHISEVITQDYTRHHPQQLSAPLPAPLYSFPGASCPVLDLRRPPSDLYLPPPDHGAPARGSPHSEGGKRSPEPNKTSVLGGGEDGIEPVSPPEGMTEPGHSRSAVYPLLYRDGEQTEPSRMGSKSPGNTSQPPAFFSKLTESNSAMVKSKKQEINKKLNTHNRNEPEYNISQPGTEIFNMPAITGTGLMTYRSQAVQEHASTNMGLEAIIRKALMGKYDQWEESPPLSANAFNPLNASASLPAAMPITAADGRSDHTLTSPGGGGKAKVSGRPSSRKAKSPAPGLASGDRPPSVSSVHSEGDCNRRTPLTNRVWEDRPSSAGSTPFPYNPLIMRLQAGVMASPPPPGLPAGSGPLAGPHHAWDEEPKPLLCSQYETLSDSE", "assay": "Counterscreen for NR2E3 inverse agonists: TR-FRET-based biochemical high throughput dose response assay to identify inverse agonists of the interaction between peroxisome proliferator-activated receptor gamma (PPARg) and nuclear receptor co-repressor 2 (NCOR2).", "type": "functional"}, "[15]": {"assay": "M. tuberculosis H37Rv growth inhibitors, H37Rv strain (AID 1626)", "type": "functional"}, "[16]": {"target": "NADPH oxidase 1 (Homo sapiens, UniProt Q9Y5S8)", "sequence (Q9Y5S8 whole entry)": "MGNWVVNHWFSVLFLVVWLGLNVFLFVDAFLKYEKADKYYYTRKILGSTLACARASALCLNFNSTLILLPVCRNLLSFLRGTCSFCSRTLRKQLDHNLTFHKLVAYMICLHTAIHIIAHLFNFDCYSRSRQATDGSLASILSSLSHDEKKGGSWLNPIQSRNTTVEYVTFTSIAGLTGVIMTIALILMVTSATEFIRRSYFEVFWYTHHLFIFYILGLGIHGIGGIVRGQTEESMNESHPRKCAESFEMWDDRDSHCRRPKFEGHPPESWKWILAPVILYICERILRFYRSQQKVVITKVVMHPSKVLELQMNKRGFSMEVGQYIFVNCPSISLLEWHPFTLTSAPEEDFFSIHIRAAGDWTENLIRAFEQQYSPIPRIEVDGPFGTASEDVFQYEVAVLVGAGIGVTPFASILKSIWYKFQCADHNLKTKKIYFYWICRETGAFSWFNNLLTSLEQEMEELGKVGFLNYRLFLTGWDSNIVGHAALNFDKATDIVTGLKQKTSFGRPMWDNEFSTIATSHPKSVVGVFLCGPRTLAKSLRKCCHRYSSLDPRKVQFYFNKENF", "type": "functional, cell-based"}},
  "note": "Calls of active or inactive are those of the source.",
  "data": [
    {"smiles": "COc1ccc(/C=N/Nc2cc(C)nc(-n3nc(C)cc3C)n2)c(OC)c1", "values": [
      {"measurement": "AC50", "setting": "[1]", "value": "10.4 µM (active)"},
      {"measurement": "EC50", "setting": "[2]", "value": "13.8 µM (active)"},
      {"measurement": "CC50", "setting": "[3]", "value": "5.91 µM (active)"},
      {"measurement": "EC50", "setting": "[4]", "value": "> 150 µM (not active)"},
      {"measurement": "IC50", "setting": "[5]", "value": "6.68 µM (active)"},
      {"measurement": "IC50", "setting": "[6]", "value": "> 67 µM (not active)"},
      {"measurement": "IC50", "setting": "[7]", "value": "240 nM (active)"},
      {"measurement": "CC50", "setting": "[8]", "value": "19.8 µM (active)"},
      {"measurement": "EC50", "setting": "[9]", "value": "9.67 µM (active)"},
      {"measurement": "AC50", "setting": "[10]", "value": "2.67 µM (active)"},
      {"measurement": "CC50", "setting": "[11]", "value": "7.06 µM (active)"}
    ]},
    {"smiles": "CCc1cccc2c(C(=O)CSc3nnc(-c4ccoc4C)n3C)c[nH]c12", "values": [
      {"measurement": "IC50", "setting": "[12]", "value": "12.7 µM (active)"}
    ]},
    {"smiles": "CC(=O)c1sc(NC(=O)CCCOc2ccc(Cl)cc2)nc1C", "values": [
      {"measurement": "IC50", "setting": "[13]", "value": "4.49 µM (active)"},
      {"measurement": "IC50", "setting": "[14]", "value": "3.5 µM (active)"}
    ]},
    {"smiles": "Cc1cc(C)cc(OCc2nnc(SCC(=O)OC(C)C)o2)c1", "values": [
      {"measurement": "IC50", "setting": "[15]", "value": "> 100 µM (active)"}
    ]},
    {"smiles": "O=C(NNC(=O)Nc1ccc(Cl)cc1)Nc1ccc(Cl)cc1", "values": [
      {"measurement": "IC50", "setting": "[16]", "value": "> 17 µM (not active)"}
    ]},
    {"smiles": "O=C(Oc1ccc([N+](=O)[O-])cc1)c1cc2ccccc2s1", "values": [
      {"measurement": "IC50", "setting": "[16]", "value": "> 17 µM (not active)"}
    ]}
  ]
}
